The first data set in a line: pKA value in aqueous solution. The conditions noted are these: aqueous solution.
For the compound `NCc1ccccn1`, the pKa worked out at 8.62.

Compound `NCCc1ccccn1` came in with a pKa of 9.52.

`CN(C)c1ccc(N)cc1` yielded a pKa of 6.71.

For `COC(=O)C(N)CCCCNC(=O)OC(C)(C)C` (stereo not drawn), the pKa was found to be 8.9.

`COC(=O)CN` had a pKa of 7.73.

In turn, `COC(=O)C(CCCCN)NC(=O)OC(C)(C)C` (stereo not drawn) gave a pKa of 10.8.

The compound `NCCc1ccccc1` [PHENETHYLAMINE] had a pKa of 9.08.

The data set is the same for the next values; noted with them: buffer.
In turn, `Nc1ccccn1` [2-AMINOPYRIDINE] showed a pKA of 7.6.

Broadly, the pKa is the negative logarithm of the acid dissociation constant. The low end stands for a group that gives up its proton readily, the high end for a group that holds its proton tightly.

Values taken from ChEMBL document CHEMBL1126519, “Addition of amines to methyl 3-dehydroquinate and 3-dehydroshikimate” (Bioorg Med Chem Lett, 1993).
